Molecules are shown by their SMILES.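 Step 1: Grow cells in 96-well plates. Step 2: Expose to compound for 48 hours at 5 concentrations. Step 3: Interpolate endpoints linearly; if unreached, use highest concentration. At the GI50, growth is halved. TGI marks complete inhibition of growth.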 Bounds are passed on as bounds.

Some test systems named below: ACHN renal; HCC-2998 colon; HOP-62 NSCLC; HT29 colon; LOX IMVI melanoma; MDA-MB-435; NCI-H522 lung; OVCAR-4 ovarian; RXF 393 renal; TK-10 renal.
What all share (test): NCI anticancer screen, dose series, 48 h

Turning to `Cn1c(=O)c(Cc2ccccc2F)cc2cnc(NC3CCOCC3)nc21`, the GI50 in the test on ACHN renal, in the test with HCC-2998 colon, with HOP-62 NSCLC, in the test on HT29 colon, in the test with LOX IMVI melanoma and in the test on MDA-MB-435 was over 25 µM in each case. The GI50 in the test on NCI-H522 lung was over 25 µM; with OVCAR-4 ovarian, over 25 µM; in the test with RXF 393 renal, over 18.4 µM; in the test with TK-10 renal, over 25 µM. Also, the TGI in the test with ACHN renal, in the test on HCC-2998 colon, in the test with HOP-62 NSCLC, with HT29 colon, in the test on LOX IMVI melanoma and in the test with MDA-MB-435 was over 25 µM each time. The TGI in the test with NCI-H522 lung, in the test on OVCAR-4 ovarian, in the test on RXF 393 renal and with TK-10 renal was over 25 µM in each case.

For `CC/C=C\C[C@H]1C/C=C2/C(=O)C=C[C@@H]2C/C=C\CCCC(=O)O1`, the GI50 with ACHN renal is 0.197 µM; in the test with HCC-2998 colon it was 1.76 µM; with HOP-62 NSCLC, 1.81 µM; in the test on HT29 colon, 0.376 µM; with LOX IMVI melanoma, 0.273 µM; in the test on MDA-MB-435 it was 0.37 µM. Further, the GI50 is 0.57 µM in the test on NCI-H522 lung, 2.73 µM with OVCAR-4 ovarian, 1.57 µM in the test with RXF 393 renal and 1.8 µM with TK-10 renal. Moreover, the TGI was determined as 0.393 µM in the test with ACHN renal; 3.22 µM with HCC-2998 colon; 5.39 µM in the test with HOP-62 NSCLC; 1.27 µM with HT29 colon; 0.865 µM in the test on LOX IMVI melanoma; 4.08 µM with MDA-MB-435. The TGI with NCI-H522 lung amounted to 2.45 µM; in the test with OVCAR-4 ovarian, 16.3 µM; in the test on RXF 393 renal, 3.1 µM; in the test with TK-10 renal, 5.03 µM.

Consider `O=C(O)C1C(Br)(c2ccccc2)C1(Br)c1ccccc1` (stereo not drawn), for which the TGI in the test with ACHN renal is 57 µM; in the test with HCC-2998 colon, 53.7 µM; in the test with HOP-62 NSCLC, over 100 µM; in the test on HT29 colon, 59 µM; in the test on LOX IMVI melanoma it was over 100 µM; with MDA-MB-435, over 100 µM. In addition, the TGI with NCI-H522 lung was 43.9 µM; with OVCAR-4 ovarian, 64.1 µM; in the test on RXF 393 renal, 41.7 µM; in the test with TK-10 renal, over 100 µM.

Consider `ClCc1cccc(Cn2cnc3nc(Cl)nc(Cl)c32)c1`, for which the GI50 was 0.396 µM with ACHN renal; 1.52 µM with HCC-2998 colon; 1.99 µM with HOP-62 NSCLC; 1.65 µM with MDA-MB-435; 1.84 µM in the test on NCI-H522 lung; 1.56 µM in the test on OVCAR-4 ovarian. In addition, the GI50 in the test with RXF 393 renal was 1.33 µM; with TK-10 renal it was 5.95 µM. The TGI is 0.837 µM in the test with ACHN renal; 2.9 µM in the test on HCC-2998 colon; 3.44 µM in the test on HOP-62 NSCLC; 3.16 µM in the test on MDA-MB-435; 3.79 µM in the test on NCI-H522 lung; 3.21 µM with OVCAR-4 ovarian. Also, the TGI amounted to 2.92 µM in the test with RXF 393 renal and 10.8 µM in the test on TK-10 renal.

With `COc1cc(C(=O)c2cc(C)c3[nH]c4ccc(C)cc4c3c2C)cc(OC)c1OC`, the GI50 in the test on ACHN renal, in the test on HCC-2998 colon, in the test on HOP-62 NSCLC, with HT29 colon, in the test with LOX IMVI melanoma and in the test on MDA-MB-435 was under 0.01 µM throughout. In addition, the GI50 in the test on NCI-H522 lung is under 0.01 µM; in the test with OVCAR-4 ovarian it was 0.0714 µM; with RXF 393 renal it was under 0.01 µM; with TK-10 renal, 3.37 µM. In addition, the TGI was over 100 µM in the test on ACHN renal; over 100 µM in the test on HCC-2998 colon; over 100 µM in the test on HOP-62 NSCLC; 1.62 µM in the test with HT29 colon; over 100 µM in the test with LOX IMVI melanoma; 0.136 µM with MDA-MB-435. Besides, the TGI was over 100 µM in the test with OVCAR-4 ovarian, 4.84 µM in the test on RXF 393 renal and over 100 µM in the test on TK-10 renal.

In the case of `CC1(C)[C@@H](OC(N)=O)[C@H]2O[C@H]2[C@]2(C=O)[C@H]3CC[C@]4(C)[C@@H](c5ccc(=O)oc5)[C@@H](Cl)C[C@]4(O)C3=CC[C@@H]12`, the GI50 in the test on ACHN renal was 0.00403 µM; with HCC-2998 colon, 0.00815 µM; with HOP-62 NSCLC it was 0.00399 µM; in the test with HT29 colon, 0.00581 µM; with LOX IMVI melanoma, 0.00451 µM; in the test on MDA-MB-435 it was 0.00704 µM. In addition, the GI50 is 0.0035 µM with NCI-H522 lung, 0.00555 µM in the test with OVCAR-4 ovarian, 0.00717 µM in the test on RXF 393 renal and 0.00551 µM with TK-10 renal. Besides, the TGI with ACHN renal is 0.00892 µM; in the test on HCC-2998 colon, 0.0342 µM; in the test on HOP-62 NSCLC, 0.00785 µM; in the test on HT29 colon, 0.0125 µM; in the test on LOX IMVI melanoma, 0.00886 µM; with MDA-MB-435, 0.0187 µM. The TGI in the test on NCI-H522 lung is 0.0104 µM; with OVCAR-4 ovarian, 0.0139 µM; in the test on RXF 393 renal, 0.237 µM; with TK-10 renal, 0.0123 µM.

For the compound `COc1ccc(CC2NCCc3cc(OC)c(OC)cc32)cc1Br` (stereo not drawn), the TGI is over 100 µM with ACHN renal; 34.6 µM in the test with HCC-2998 colon; over 100 µM in the test with HOP-62 NSCLC; 57.9 µM in the test on HT29 colon; 47.1 µM with LOX IMVI melanoma; 60 µM in the test with MDA-MB-435. The TGI in the test with NCI-H522 lung was over 100 µM; with OVCAR-4 ovarian it was over 100 µM; in the test with RXF 393 renal, 59.1 µM; in the test on TK-10 renal, over 89.8 µM.

As to `ClCC[N+]12CC[N+](CCCl)(CC1)C2`, the TGI with ACHN renal, with HCC-2998 colon, in the test with HOP-62 NSCLC, in the test on HT29 colon, in the test with LOX IMVI melanoma and with MDA-MB-435 was over 100 µM in each case. Moreover, the TGI in the test with NCI-H522 lung, with OVCAR-4 ovarian, in the test with RXF 393 renal and in the test on TK-10 renal was over 100 µM each time.

Regarding `O=C1CSC(c2ccc(Cl)cc2Cl)N1c1ccc(F)cc1` (stereo not drawn), the GI50 was 17.2 µM in the test on ACHN renal; 17.6 µM with HCC-2998 colon; 18 µM in the test with HOP-62 NSCLC; 18.2 µM in the test on LOX IMVI melanoma; 20.8 µM with MDA-MB-435; 15.1 µM with NCI-H522 lung. For the same compound, the values for the GI50 in the test on OVCAR-4 ovarian, in the test on RXF 393 renal and in the test with TK-10 renal were 16.8 µM, 27.4 µM and 14.4 µM, respectively. Moreover, the TGI with ACHN renal was 31.1 µM; in the test on HCC-2998 colon it was 31.5 µM; with HOP-62 NSCLC it was 32.3 µM; in the test with LOX IMVI melanoma, 34 µM; with MDA-MB-435, 43 µM; in the test on NCI-H522 lung it was 31.1 µM. For the same compound, the TGI in the test with OVCAR-4 ovarian turned out to be 31.9 µM; in the test on RXF 393 renal it was 56 µM; in the test on TK-10 renal, 27.7 µM.

These data come from PubChem BioAssay (NCI).
